Results as given in PMC9024597, “The Biological Fate of a Novel Anticancer Drug Candidate TNBG-5602: Metabolic Profile, Interaction with CYP450, and Pharmacokinetics in Rats” (Molecules, 2022).

Experiments:
[1] = In vivo metabolites in rat urine and feces by UPLC-Q-TOF-MS/MS; conditions: rats; for metabolite detected in feces: TNBG-5602 i.v. 4.8 mg kg^−1, feces 0-24 h
Method: An Exion LC^TM AC UPLC system (AB Sciex, Framingham, MA, USA) coupled with an […] Q-TOF tandem mass spectrometer was used for qualitative analysis in this study. Chromatographic separation was carried out on an ACQUITY UPLC HSS T3 column (2.1 × 75 mm, 1.8 μm, Waters, Wexford, Ireland). […] The column temperature was set to 35 °C. The injection volume was 5 μL. A full scan was performed over m/z 100-1000 for precursor ions in positive mode with a spray voltage of 5.5 kV, collision energy (CE) of 35 V, CE spread of 15 V, and accumulation time of 0.05 s. The Q-TOF scan for product ions was performed over m/z 100-1200 with CE 10 V and an accumulation time of 0.1 s. For the structural identification of metabolites, the UPLC-Q-TOF-MS/MS data were acquired and processed via SCIEX OS (Version 1.7, AB Sciex, Redwood City, CA, USA). The raw data files were imported into SCIEX OS 2.1 to search for and identify the metabolites of TNBG-5602. Identification of the chemical structure included two steps. The first step was automatic prediction, while the second step was manual validation. In Step 1, the candidate metabolites were predicted by the software based on the typical metabolic reactions of the templates. In Step 2, an ion chromatogram was extracted to screen candidate metabolites with mass tolerance within 5 ppm, using blank samples for the subtraction of the background. Then, the MS/MS fragment ions were extracted for the structural confirmation of candidate metabolites. […] The urine and feces samples were collected before administration (0 h) and at 8, 12, and 24 h after intravenous injection. The urine samples were vortex mixed with acetonitrile at a ratio of 1:3 (v/v) for 15 min. The mixture was then centrifuged at 15,000 rpm for 10 min, and the supernatant was dried using a gentle flow of nitrogen. The residue was dissolved in acetonitrile and vortex mixed again. The supernatant was dried again and re-dissolved in 0.1% aqueous formic acid: acetonitrile (50:50, v/v). The treated sample solutions were stored at -20 °C until analysis. A 5 μL aliquot of the thawed sample solution was injected into the UPLC-Q-TOF-MS/MS device to analyze the metabolites. The feces samples were homogenized with pure water at a ratio of 1:1 (w/w). The homogenate was vortex mixed with acetonitrile at a ratio of 1:3 (w/v) for 15 min. The mixture was then centrifuged at 15,000 rpm for 10 min, and the supernatant was dried using a gentle flow of nitrogen. The residue was dissolved with acetonitrile and vortex mixed again. The supernatant was dried again and re-dissolved in 0.1% aqueous formic acid: acetonitrile (50:50, v/v). The treated sample solutions were stored at -20 °C until analysis. A 5-μL aliquot of the thawed sample solution was injected into the UPLC-Q-TOF-MS/MS device to analyze the metabolites.

CYP4V2 = target: T1, CYP4V2 (Homo sapiens, UniProt Q6ZWL3); assay: Metabolite formation on incubation with recombinant CYP; assay type: in vitro ADME; conditions: TNBG-5602 5 μg mL^−1, recombinant CYP 0.025 μM, 37 °C, 60 min
T1 construct: purchased Abnova P01
T1 sequence (Q6ZWL3 1-525): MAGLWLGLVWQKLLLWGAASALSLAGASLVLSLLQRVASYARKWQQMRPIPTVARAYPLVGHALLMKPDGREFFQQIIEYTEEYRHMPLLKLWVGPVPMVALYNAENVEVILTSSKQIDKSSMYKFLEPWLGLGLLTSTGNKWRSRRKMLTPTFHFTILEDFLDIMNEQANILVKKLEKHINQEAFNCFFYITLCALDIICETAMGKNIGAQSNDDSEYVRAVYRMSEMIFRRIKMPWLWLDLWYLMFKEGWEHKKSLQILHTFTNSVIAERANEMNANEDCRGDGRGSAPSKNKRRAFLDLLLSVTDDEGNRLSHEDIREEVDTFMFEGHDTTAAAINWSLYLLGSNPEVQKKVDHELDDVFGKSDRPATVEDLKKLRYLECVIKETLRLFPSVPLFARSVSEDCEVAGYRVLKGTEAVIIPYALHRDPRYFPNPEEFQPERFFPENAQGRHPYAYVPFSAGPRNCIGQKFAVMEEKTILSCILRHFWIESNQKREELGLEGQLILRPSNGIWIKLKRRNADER
Method: (§1) An Exion LC^TM AC UPLC system (AB Sciex, Framingham, MA, USA) coupled with an […] Q-TOF tandem mass spectrometer was used for qualitative analysis in this study. Chromatographic separation was carried out on an ACQUITY UPLC HSS T3 column (2.1 × 75 mm, 1.8 μm, Waters, Wexford, Ireland). […] The column temperature was set to 35 °C. The injection volume was 5 μL. A full scan was performed over m/z 100-1000 for precursor ions in positive mode with a spray voltage of 5.5 kV, collision energy (CE) of 35 V, CE spread of 15 V, and accumulation time of 0.05 s. The Q-TOF scan for product ions was performed over m/z 100-1200 with CE 10 V and an accumulation time of 0.1 s. For the structural identification of metabolites, the UPLC-Q-TOF-MS/MS data were acquired and processed via SCIEX OS (Version 1.7, AB Sciex, Redwood City, CA, USA). The raw data files were imported into SCIEX OS 2.1 to search for and identify the metabolites of TNBG-5602. Identification of the chemical structure included two steps. The first step was automatic prediction, while the second step was manual validation. In Step 1, the candidate metabolites were predicted by the software based on the typical metabolic reactions of the templates. In Step 2, an ion chromatogram was extracted to screen candidate metabolites with mass tolerance within 5 ppm, using blank samples for the subtraction of the background. Then, the MS/MS fragment ions were extracted for the structural confirmation of candidate metabolites. The stock solution of TNBG-5602 ([…]) was prepared using 0.1% aqueous formic acid. Then, the stock solution was diluted with PBS buffer to make the working solution of TNBG-5602 (1 mg mL^-1). The working solution of TNBG-5602 was incubated with CYP2D6, CYP3A4, CYP2C9, and CYP4V2 recombinant cytochrome enzymes, respectively. The total incubation volume for each reaction was 200 μL, containing TNBG-5602 (final concentration: 5 μg mL^-1), cytochrome P450s (final concentration: 0.025 μM), 3.3 mM MgCl2, 1.3 mM NADPH, 3.3 mM glucose-6-phosphate, 0.4 U mL^-1 glucose-6-phosphate dehydrogenase, and 0.05 mM sodium citrate. The cytochrome P450s were thawed on an ice bath and pre-incubated at 37 °C for 5 min. The mixtures were pre-incubated at 37 °C for 5 min before adding NADPH to initiate the reaction. NADPH was pre-incubated at 37 °C for 5 min and then added into the incubation system to initiate the reaction. The incubation periods were 60 min, and the reactions were quenched by adding 200 μL of iced acetonitrile. The samples were centrifuged (12,000× g rpm, 4 °C) for 10 min, and the supernatant was analyzed via the qualitative LC-MS/MS method. Blank samples in the absence of TNBG-5602 were incubated and followed by the same treatment.

CYP3A4 = target: T2, CYP3A4 (Homo sapiens, UniProt P08684); assay: as above; assay type: in vitro ADME; conditions: TNBG-5602 5 μg mL^−1, recombinant CYP 0.025 μM, 37 °C, 60 min
T2 construct: purchased IPHASE
T2 sequence (P08684 whole entry): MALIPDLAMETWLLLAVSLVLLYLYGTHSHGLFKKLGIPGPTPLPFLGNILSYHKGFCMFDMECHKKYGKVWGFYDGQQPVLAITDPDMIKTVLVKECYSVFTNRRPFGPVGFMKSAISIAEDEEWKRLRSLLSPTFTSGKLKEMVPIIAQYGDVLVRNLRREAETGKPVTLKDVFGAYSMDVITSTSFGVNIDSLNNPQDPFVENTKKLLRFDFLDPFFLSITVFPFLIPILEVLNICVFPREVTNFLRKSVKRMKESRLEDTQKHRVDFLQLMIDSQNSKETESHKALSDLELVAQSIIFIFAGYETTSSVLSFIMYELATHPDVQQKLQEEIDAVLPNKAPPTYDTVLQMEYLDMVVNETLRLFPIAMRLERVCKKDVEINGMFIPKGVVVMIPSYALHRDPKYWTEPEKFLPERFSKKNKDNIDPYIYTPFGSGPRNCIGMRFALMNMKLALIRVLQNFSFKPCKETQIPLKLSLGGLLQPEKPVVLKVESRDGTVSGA
Method: as §1

CYP2C9 = target: T3, CYP2C9 (Homo sapiens, UniProt P11712); assay: as above; assay type: in vitro ADME; conditions: TNBG-5602 5 μg mL^−1, recombinant CYP 0.025 μM, 37 °C, 60 min
T3 construct: purchased IPHASE
T3 sequence (P11712 whole entry): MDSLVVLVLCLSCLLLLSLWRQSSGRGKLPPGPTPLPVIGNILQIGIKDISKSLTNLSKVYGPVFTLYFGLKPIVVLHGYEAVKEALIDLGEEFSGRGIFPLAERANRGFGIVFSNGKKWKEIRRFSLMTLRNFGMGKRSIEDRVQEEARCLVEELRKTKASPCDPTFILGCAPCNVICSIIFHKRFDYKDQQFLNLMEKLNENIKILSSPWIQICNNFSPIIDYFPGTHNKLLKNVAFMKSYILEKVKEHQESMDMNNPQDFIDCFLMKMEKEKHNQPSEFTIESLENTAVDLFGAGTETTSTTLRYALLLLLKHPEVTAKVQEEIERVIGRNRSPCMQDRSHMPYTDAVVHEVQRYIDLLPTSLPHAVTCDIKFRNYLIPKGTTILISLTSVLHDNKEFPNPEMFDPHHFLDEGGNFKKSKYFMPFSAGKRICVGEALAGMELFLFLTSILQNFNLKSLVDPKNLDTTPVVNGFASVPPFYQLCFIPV
Method: as §1

CYP2D6 = target: T4, CYP2D6 (Homo sapiens, UniProt P10635); assay: as above; assay type: in vitro ADME; conditions: TNBG-5602 5 μg mL^−1, recombinant CYP 0.025 μM, 37 °C, 60 min
T4 construct: purchased IPHASE
T4 sequence (P10635 whole entry): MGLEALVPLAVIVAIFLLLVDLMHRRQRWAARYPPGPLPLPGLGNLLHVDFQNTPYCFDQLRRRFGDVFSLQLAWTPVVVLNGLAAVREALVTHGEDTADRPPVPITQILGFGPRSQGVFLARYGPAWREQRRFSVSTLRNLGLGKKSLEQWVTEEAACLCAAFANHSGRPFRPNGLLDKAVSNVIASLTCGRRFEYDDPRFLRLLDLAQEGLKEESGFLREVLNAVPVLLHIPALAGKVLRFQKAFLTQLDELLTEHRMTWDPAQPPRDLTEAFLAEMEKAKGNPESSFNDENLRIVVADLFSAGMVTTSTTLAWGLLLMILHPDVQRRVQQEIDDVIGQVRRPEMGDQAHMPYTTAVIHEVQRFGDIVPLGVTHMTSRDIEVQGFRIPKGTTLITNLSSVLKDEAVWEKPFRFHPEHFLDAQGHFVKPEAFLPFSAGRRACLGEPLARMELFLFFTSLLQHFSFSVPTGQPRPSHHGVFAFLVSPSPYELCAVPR
Method: as §1

CN(C=O)CCN1CC2c3ccccc3CCN2c2nc3ccccc3nc21 (centres unmarked) [M8]
rank of metabolite in the feces (major/minor) ([1]; TNBG-5602 i.v.): minor | metabolite detected in feces [1]: ×

CN1CCN2CC3c4ccccc4CCN3C3=Nc4ccccc4NC312 (centres unmarked) [M6]
rank of metabolite in the feces (major/minor) ([1]; TNBG-5602 i.v.): minor | metabolite detected in feces [1]: ×

c1ccc2c(c1)CCN1c3nc4ccccc4nc3N(CCN3COC3)CC21 (centres unmarked) [M7]
rank of metabolite in the feces (major/minor) ([1]; TNBG-5602 i.v.): minor | metabolite detected in feces [1]: ×

CNCCN1CC2c3ccccc3CCN2c2nc3ccccc3nc21 (centres unmarked) [M5]
metabolite detected after incubation with CYP4V2 (CYP4V2): found and × | metabolite detected after incubation with CYP3A4 (CYP3A4): obtained and × | metabolite detected after incubation with CYP2C9 (CYP2C9): found and × | metabolite detected after incubation with CYP2D6 (CYP2D6): observed and × | rank of metabolite in the feces (major/minor) ([1]; TNBG-5602 i.v.): major | rank of metabolite in the urine ([1]; TNBG-5602 i.v.): main | metabolite detected in feces [1]: present and × | metabolite detected in urine ([1]; TNBG-5602 i.v. 4.8 mg kg^−1, urine 0-24 h): present and ×
